Laboratory results published in US9227982B2 (NOVARTIS AG, priority 2011, dated 2016).

Legend:
[1] = biological target: human tankyrase 1 PARP catalytic domain, TNKS1P (Homo sapiens (Human), UniProt O95271); assay: TNKS1 autoparsylation enzymatic assay (LC/MS detection of nicotinamide); type: biochemical; conditions: 20 nM enzyme, 250 μM β-NAD+, 60 min, read-out: TNKS1 AP IC50
Source text: (§1) The human tankyrase 1 PARP catalytic domain, TNKS1P, was cloned into a pDONR221 vector using the Invitrogen Gateway Technology. This entry clone was then subcloned into the destination vector pDEST20 to obtain the N-terminal Glutathione S-transferase (GST)-tagged fusion protein. GST-TNKS1P was then expressed in Sf21 cells using the Invitrogen baculovirus expression system (Invitrogen-Bac-to-Bac® Baculovirus Expression System, Version D). The protein was purified by a GSTrap column (GE Healthcare). The N-terminal GST-tagged tankyrase 2 protein PARP domain, TNKS2P, was cloned, expressed, and purified in a similar manner. Human PARP1 (Cat. No. 4668-100-01) and activated DNA (Cat. No. 4671-096-06) were purchased from Trevigen, Inc. PARP2 (Cat. No. ALX-201-064-C020) was purchased from Alexis Biochemical.
The % Inhibition was calculated as: (Control−Sample)/(Control−Background)*100. “Control” is the average value of 8 wells without compound; and “Background” is the average of 8 wells mixed with 5× quenching solution measured prior to initiation of the reaction.

Axin2 protein = assay: Cellular ELISA assay of Axin2 protein stabilization in SW480 cells; type: cell-based; conditions: Homo sapiens, 24 hrs treatment, read-out: Axin AC50
Procedure: Cellular ELISA Assay to Determine Compound Effect on Stabilizing the Axin2 Protein
Compound activity in stabilizing the Axin2 protein was measured by Sandwich Enzyme-Linked Immuosorbent (ELISA) assay in the colorectal cell line SW480. 30,000 SW480 cells were seeded per well in 96-well plate and incubated overnight prior to compound treatment. Cells were then treated with compounds in 6-point dilution starting at 10 μM for 24 hrs. Cells were then washed with 100 μL of cold Phosphate Buffer Saline (PBS), and lysed in 125 μl of cold 1× lysis buffer (Cell Signaling Technology, 9803) supplemented with Protease inhibitor (Roche, 11836170) and Phosphatase inhibitors (Sigma, P2850, P5726). For the ELISA assay, anti Axin-2 capture antibody (Strategic Diagnostics) antibody was diluted to a concentration of 1 μg/ml (1:1000) in Carbonate Coating buffer, pH 9.2 (Sigma, C3041-50CAP). 100μ of the diluted anti Axin-2 capture antibody per well was then used to coat the 96-well ELISA plate (Thermo Electron Corp., MicroLite 1 flat bottom plate #7571) overnight at 4° C. Plates were then washed three times with 300 of wash solution, PBST20 (PBS+0.05% Tween), and blocked with 300 μl/well 1% BSA/PBS (BSA, Millipore Probumin #82-045-1) for 1.5 hours at room temperature while shaking gently. After blocking, plates were then washed three times with 300 of wash solution. 100 μL of prepared SW480 cell lysate was then added to each well and incubated at room temperature for 2 hours while shaking gently. After washing, 100 μL of Biotinylated anti-Axin2 antibody (CST, 2151) was added to each well and incubated room temperature for 2 hours. 100 μL of Streptavidin-HRP (R&D systems, DY998) diluted 1:200 in 1% BSA/PBS was then added in each well and incubate for 30 mins at R/T in the dark.

[2] = tested on: Non-small lung cancer ABC-1 cells; assay: Cellular proliferation assay (CellTiter-Glo) in ABC-1 cells; type: cell-based; conditions: Homo sapiens, 72 h, 3 days of compound treatment
Procedure: Cellular Proliferation Assay to Determine Compound Inhibition of Cancer Cell Growth
Non-small lung cancer ABC-1 cells were plated at 5000 cells per well in 96-well plates and treated with 8 serial compound dilutions starting from 10 μM as the highest concentration. Viable cells were measured after 3 days of compound treatment using the CellTiter-Glo assay (Promega, G7570). Assay was performed following the manufacture protocol.

[3] = tested on: Herpes Simplex Virus (HSV); conditions: cited from earlier work
PARP2 = PARP2 (Mus musculus (Mouse), UniProt O88554); assay: PARP2 autoparsylation enzymatic assay (LC/MS detection of nicotinamide); type: biochemical; conditions: 20 nM enzyme, 250 μM β-NAD+, 60 min
Source text: as §1, with “manner.” for “manner. Human PARP1 (Cat. No. 4668-100-01) and activated DNA (Cat. No. 4671-096-06) were purchased from Trevigen, Inc. PARP2 (Cat. No. ALX-201-064-C020) was purchased from Alexis Biochemical.”
The autoparsylation activity of the TNKS 1/2 or PARP1/2 enzymes was measured by the liquid chromatography-mass spectrometry (LC/MS) detection of nicotinamide as readout. Compound activity in inhibiting the TNKS and PARP autoparsylation was evaluated by IC50 measurements. […] For the background control wells, 10 μL of the 5× quenching solution per well was added prior to the addition of β-NAD^+. The % Inhibition was calculated as: (Control−Sample)/(Control−Background)*100.

Sequence of human tankyrase 1 PARP catalytic domain, TNKS1P (O95271 1112-1317): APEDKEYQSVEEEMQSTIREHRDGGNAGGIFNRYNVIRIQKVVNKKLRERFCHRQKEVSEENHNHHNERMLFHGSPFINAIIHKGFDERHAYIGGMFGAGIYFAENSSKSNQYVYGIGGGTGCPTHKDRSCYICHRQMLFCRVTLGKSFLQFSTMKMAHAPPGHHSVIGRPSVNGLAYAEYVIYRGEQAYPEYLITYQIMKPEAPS
Sequence of PARP2 (O88554 whole entry): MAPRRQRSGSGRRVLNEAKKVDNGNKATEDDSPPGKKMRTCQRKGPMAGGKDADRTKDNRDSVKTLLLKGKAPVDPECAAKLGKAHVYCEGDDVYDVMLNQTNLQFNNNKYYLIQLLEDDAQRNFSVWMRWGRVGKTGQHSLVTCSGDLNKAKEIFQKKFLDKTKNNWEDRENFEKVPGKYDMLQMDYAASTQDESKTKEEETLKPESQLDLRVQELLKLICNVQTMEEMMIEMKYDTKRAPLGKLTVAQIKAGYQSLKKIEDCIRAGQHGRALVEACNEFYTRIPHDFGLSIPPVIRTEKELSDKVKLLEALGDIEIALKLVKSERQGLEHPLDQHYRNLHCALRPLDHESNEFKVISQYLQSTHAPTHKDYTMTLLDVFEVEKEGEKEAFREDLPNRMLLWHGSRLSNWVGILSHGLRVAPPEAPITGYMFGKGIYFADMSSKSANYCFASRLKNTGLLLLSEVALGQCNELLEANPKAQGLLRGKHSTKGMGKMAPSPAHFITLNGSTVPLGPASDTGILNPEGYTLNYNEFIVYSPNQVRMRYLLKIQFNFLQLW

Row | IC50 [1] | IC50 [2] | Molecule | AC50 (Axin2 protein) | HSV viral growth [3] | HSV viral protein expression [3] | IC50 (PARP2)
1 | 1.15 ± 0.02 µM | > 10 µM | O=C(CCc1ccccc1)N(Cc1nc2c(c(=O)[nH]1)COCC2)Cc1cccs1 [Example 1] | > 10 µM |  |  | 
2 | 1.02 ± 0.003 µM | > 10 µM | O=C(CCc1cccc(O)c1)N(Cc1nc2c(c(=O)[nH]1)COCC2)Cc1cccs1 [Example 7, 3-(3-Hydroxy-phenyl)-N-(4-oxo-3,5,7,8-tetrahydro-4H-pyrano[4,3-d]pyrimidin-2-ylmethyl)-N-thiophen-2-ylmethyl-propionamide] | > 10 µM |  |  | 

Further lines, the molecule ahead of its results:

Row | Molecule | IC50 [1] | IC50 [2] | AC50 (Axin2 protein) | HSV viral growth [3] | HSV viral protein expression [3] | IC50 (PARP2)
3 | O=C(CCc1ccc(F)cc1)N(Cc1nc2c(c(=O)[nH]1)COCC2)Cc1cccs1 [Example 2, 3-(4-Fluoro-phenyl)-N-(4-oxo-3,5,7,8-tetrahydro-4H-pyrano[4,3-d]pyrimidin-2-ylmethyl)-N-thiophen-2-ylmethyl-propionamide] | 0.299 ± 0.026 µM | > 10 µM | 8.2 ± 0.3 µM |  |  | 
4 | O=C(CCc1ccccc1F)N(Cc1nc2c(c(=O)[nH]1)COCC2)Cc1cccs1 [Example 4, 3-(2-Fluoro-phenyl)-N-(4-oxo-3,5,7,8-tetrahydro-4H-pyrano[4,3-d]pyrimidin-2-ylmethyl)-N-thiophen-2-ylmethyl-propionamide] | 0.271 ± 0.045 µM | 8.74 µM | 4.1 ± 2.1 µM |  |  | 
5 | Oc1nc(-c2ccc(C(F)(F)F)cc2)nc2c1CSCC2 [XAV939] |  |  |  | decreased viral growth | suppressed HSV viral protein expression | 
6 | N-((4-0xo-4,5,7,8-tetrahydro-3H-pyrano[4,3-d]pyrimidin-2-yl)methyl)-3-phenyl-N-(thiophen-3-ylmethyl)propanamide [Example 18] | 5.17 ± 0.46 µM |  |  |  |  | 10.4 ± 0.8 µM
